Data reported in patent US20130245047A1, “COMPOSITIONS FOR TREATING CANCER-RELATED FATIGUE AND METHODS OF SCREENING THEREOF” (TENERA THERAPEUTICS, LLC, priority 2011, published 2013).

How the values were obtained:
BALB/c mice = experiment: etoposide-induced fatigue model (CTRF animal model), activity, weight and blood chemistry; assay type: in vivo
Method: An animal model has been developed to screen for drugs which are efficacious in the treatment, alleviation and/or prevention of chronic fatigue syndrome, such as cancer treatment-related fatigue (“CTRF”). […] The animal's overall activity is measured using a running wheel or other method. In addition, the animal's day and night activity profiles are measured to determine when disrupted sleep architecture is present. This is characterized by disruption of the REM sleep as well as fatigue and cognitive dysfunction. The animal's percent daily weight change is also determined. The levels of cytokines such as IL-6 can be measured, since these are typically elevated with chemotherapy treatment. Results can be provided as percent change of total activity, percent change relative to light exposure, percent weight change over a defined time period (day, week), and combinations thereof.
The model can be created using any one of a number of different drugs, alone or in combination with additional therapy, such as one or more other chemotherapeutics or radiation. The in vitro and in vivo models described above can be used to identify compounds that effectively treat CTRF. In one embodiment, etoposide is administered in a dosage of 50 to 60 mg/kg to cause CTRF. In this study etoposide was administered by a single intraperitoneal injection on the first day of the study.
(§1) For the etoposide-induced fatigue model (FIGS. 2-7), BALB/c mice (obtained and housed as described above) were divided into groups of 10 animals per group: 1. control (untreated) mice, 2. mice treated with a single intraperitoneal dose of 60 mg/kg etoposide on day 1, and 3. mice treated with a single intraperitoneal dose of 60 mg/kg etoposide on day 1, followed by daily oral doses of pentoxifylline administered as a 1 mg/kg dose in the drinking water throughout the study. The animals were then assessed for their level of activity relative to time of day (day and night); total locomotor activity; blood chemistry (hemoglobin, red blood cells, white blood cells); over time in weeks.

IL-6 = IL-6 levels in etoposide-treated animals; assay type: in vivo, mice; details: increasing etoposide dosing (0, 50 or 60 mg/kg); FIG. 3
Method: An animal model has been developed to screen for drugs which are efficacious in the treatment, alleviation and/or prevention of chronic fatigue syndrome, such as cancer treatment-related fatigue (“CTRF”). […] The animal's overall activity is measured using a running wheel or other method. In addition, the animal's day and night activity profiles are measured to determine when disrupted sleep architecture is present. This is characterized by disruption of the REM sleep as well as fatigue and cognitive dysfunction. The animal's percent daily weight change is also determined. The levels of cytokines such as IL-6 can be measured, since these are typically elevated with chemotherapy treatment. […]
as §1, with “[…], […],” for “2. mice treated with a single intraperitoneal dose of 60 mg/kg etoposide on day 1, and 3. mice treated with a single intraperitoneal dose of 60 mg/kg etoposide on day 1,”

female BALB/c mice = experiment: LPS-induced fatigue model, daily activity counts; assay type: in vivo; details: single intraperitoneal dose of 2.5 mg/kg lipopolysaccharide vs saline control; FIG. 1
Method: For the LPS-induced fatigue model shown in FIG. 1, […], female BALB/c mice were obtained from Charles River Laboratories (Wilmington, Mass.). The mice were randomized into 2 groups of 10 prior to treatment. Animals were housed 5 per cage in micro-isolators and allowed to acclimatize for 4 days prior to dosing. Animal were given food and water ad libitum with a 12 hour light/12 hour dark schedule.
Animals in the control group were initially injected intraperitoneally with saline. Animals in the LPS group were injected intraperitoneally with a single dose of 2.5 mg/kg lipopolysaccharide on dayl.

[1] = etoposide, over time in days, FIG. 5

**Q.** How did the total locomotor activity (BALB/c mice; animals treated with 60 mg etoposide/kg, then daily oral pentoxifylline 1 mg/kg in drinking water, FIG. 6) turn out when `CC(=O)CCCCn1c(=O)c2c(ncn2C)n(C)c1=O` [Pentoxifylline] was run?
**A.** improves activity

**Q.** And the “12 hour dark activity over time (weeks)” value (BALB/c mice; etoposide treated followed by pentoxifylline 1 mg/kg daily oral vs etoposide treated and untreated control, FIG. 7A)?
**A.** significantly increase nocturnal activity

**Q.** And the “12 hour light activity over time (weeks)” value (BALB/c mice; etoposide treated followed by pentoxifylline 1 mg/kg daily oral vs etoposide treated and untreated control, FIG. 7B)?
**A.** decrease activity when animals should be sleeping

**Q.** `COc1cc([C@@H]2c3cc4c(cc3[C@@H](O[C@@H]3O[C@@H]5CO[C@@H](C)O[C@H]5[C@H](O)[C@H]3O)[C@H]3COC(=O)[C@H]23)OCO4)cc(OC)c1O` [etoposide] was tested. Which “levels of IL-6” value (IL-6) did it give?
**A.** increased levels of IL-6

**Q.** What about the “total locomotor activity over time (weeks)” value (BALB/c mice; 60 mg etoposide/kg single intraperitoneal dose, FIG. 2) of the same molecule?
**A.** decreased total activity over time of treatment

**Q.** What about the “fatigue (percent of baseline) over time (weeks)” value (BALB/c mice; 60 mg etoposide/kg, 12 hour dark cycle or 12 hour light cycle, FIG. 4) of the same molecule?
**A.** decreased activity

**Q.** What about the “activity counts (shift of circadian rhythm)” value (BALB/c mice; [1]) of the same molecule?
**A.** decreased activity, which was more pronounced during the evening

**Q.** And the “percent daily weight change (shift of circadian rhythm)” value (BALB/c mice; [1])?
**A.** weight loss

**Q.** What about the “dependence of the observed results on anemia (blood chemistry)” value (BALB/c mice; mice treated with etoposide) of the same molecule?
**A.** independent of anemia

**Q.** For lipopolysaccharide [LPS], which “total daily activity (counts/group) per day” value (female BALB/c mice) is on record?
**A.** decreased activity indicative of fatigue
